Measured values as given in patent US20080160001A1, “Antihypercholesterolemic Formulation with Less Side-Effects” (PFICKER PHARMACEUTICALS LTD., priority 2005, published 2008).

Legend:
[1] = in vivo; cited from earlier work
patients [2] = conditions: patient with abnormal heart function, 40 mg alone, within 6 months, from 0.70; cited from earlier work
[3] = test system: patients (clinical cases); assay: Summary of clinical cases; conditions: patient, simvastatin 20 mg; for blood ammonia: before test 72; for cholesterol in the blood: before test 249; for concentration of cholesterol in the blood: before 249
[4] = Experiment on stability of simvastatin; format: physicochemical; conditions: under pH of 5-7
patients [5] = conditions: cited from earlier work
[6] = cited from earlier work

Molecule: Vitamin E
- amount at which no toxic and side effect is found [1]: 500 mg/day

Molecule: CC[C@H](C)C(=O)O[C@H]1C[C@@H](C)C=C2C=C[C@H](C)[C@H](CC[C@@H]3C[C@@H](O)CC(=O)O3)[C@H]21 [lovastatin]
- ejection fraction of heart (patients [2]): 0.54

Molecule: C[N+](C)(C)C[C@H](O)CC(=O)[O-] [L-Carnitine]
- amount at which no toxic and side effect is found [1]: 500 mg/kg body weight/day

Molecule: O=C(O)CCCCC1CCSS1 (centres unmarked) [lipoic acid]
- amount at which no toxic and side effect is found [1]: 300 mg/day

Molecule: silymarin
- amount at which no toxic and side effect is found [1]: 200 mg/kg body weight/day

Molecule: CCC(C)(C)C(=O)O[C@H]1C[C@@H](C)C=C2C=C[C@H](C)[C@H](CC[C@@H]3C[C@@H](O)CC(=O)O3)[C@H]21 [simvastatin]
- ejection fraction ([3]; 5 weeks, before test 0.59): 0.62
- blood ammonia ([3]; 5 weeks): 84 µg/L
- cholesterol in the blood ([3]; 5 weeks): 202 mg/L
- ejection fraction ([3]; 10 weeks, before test 0.59): 0.60
- blood ammonia ([3]; 10 weeks): 69 µg/L
- cholesterol in the blood ([3]; 10 weeks): 198 mg/L
- ejection fraction ([3]; 15 weeks, before test 0.59): 0.63
- blood ammonia ([3]; 15 weeks): 77 µg/L
- cholesterol in the blood ([3]; 15 weeks): 194 mg/L
- ejection fraction ([3]; 20 weeks, before test 0.59): 0.58
- blood ammonia ([3]; 20 weeks): 108 µg/L
- cholesterol in the blood ([3]; 20 weeks): 197 mg/L
- ejection fraction ([3]; 25 weeks, before test 0.59): 0.62
- blood ammonia ([3]; 25 weeks): 89 µg/L
- cholesterol in the blood ([3]; 25 weeks): 192 mg/L
- ejection fraction ([3]; 30 weeks, before test 0.59): 0.61
- blood ammonia ([3]; 30 weeks): 93 µg/L
- cholesterol in the blood ([3]; 30 weeks): 194 mg/L
- ejection fraction ([3]; 35 weeks, before test 0.59): 0.61
- blood ammonia ([3]; 35 weeks): 162 µg/L
- cholesterol in the blood ([3]; 35 weeks): 189 mg/L
- ejection fraction ([3]; after 6 months, before 0.59): 0.61
- concentration of blood ammonia ([3]; after 6 months, before 72): 162 ng/mL
- concentration of cholesterol in the blood ([3]; after 6 months): 189 mg/L
- concentration of cholesterol in the blood ([3]; after one month): 202 mg/L
- stability of simvastatin solid [4]: good stability

Molecule: COC1=C(OC)C(=O)C(C/C=C(\C)CC/C=C(\C)CC/C=C(\C)CC/C=C(\C)CC/C=C(\C)CC/C=C(\C)CC/C=C(\C)CC/C=C(\C)CC/C=C(\C)CCC=C(C)C)=C(C)C1=O [coenzyme Q10]
- outcome of patients close to death due to heart failure (patients [5]; 19 patients): becoming better
- patients with three-year persistence (patients [5]; added to traditional therapy for heart diseases, traditional therapy 25%): 75%
- amount at which no toxic and side effect is found [1]: 100 mg/kg body weight/day
- solubility in an aqueous medium [6]: very low
